Results taken from PMC11944389, “Electrochemical Analysis and Inhibition Assay of Immune-Modulating Enzyme, Indoleamine 2,3-Dioxygenase” (Pharmaceuticals, 2025).

Biological target: T1, human indoleamine 2,3-dioxygenase 1 (hIDO1) (Homo sapiens, UniProt P14902)
T1 construct: gene IDO1; full-length hIDO1
Test: electrochemical inhibition assay (voltammetry, purified hIDO1 immobilized on nanoporous gold electrode, with O2 and Trp)
Type: biochemical

T1 sequence (P14902 whole entry): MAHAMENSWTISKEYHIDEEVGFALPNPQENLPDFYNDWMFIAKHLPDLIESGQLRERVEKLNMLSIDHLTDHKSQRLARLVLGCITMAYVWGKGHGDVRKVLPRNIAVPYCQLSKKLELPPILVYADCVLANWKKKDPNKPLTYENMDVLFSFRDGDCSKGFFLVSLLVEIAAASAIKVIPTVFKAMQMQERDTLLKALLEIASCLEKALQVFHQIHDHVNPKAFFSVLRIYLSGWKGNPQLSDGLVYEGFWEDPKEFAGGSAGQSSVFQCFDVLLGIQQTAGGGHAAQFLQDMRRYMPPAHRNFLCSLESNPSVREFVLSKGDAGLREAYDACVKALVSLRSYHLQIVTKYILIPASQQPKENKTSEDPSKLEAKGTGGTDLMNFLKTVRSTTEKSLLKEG

IC50: ~10 nM
SMILES: CC(C)(C)c1nc(CN2CCN(CC(O)c3ccccc3)CC2)no1 (racemic) [MTS-7, 2-(4-{[5-(2-methyl-2-propanyl)-1,2,4-oxadiazol-3-yl]methyl}-1-piperazinyl)-1-phenylethanol]
